Measurements reported in patent publication US20180282818A1, “Therapeutic Cancer Treatments Based on TP53 Gene Mutations” (The Wistar Institute of Anatomy and Biology, priority 2015, published 2018).

How the values were obtained:
Format in all cases: cell-based
S47 tumor cells = assay: Sensitivity of E1A/Ras-transformed S47 tumor cells compared to WT cells; conditions: S47 and WT cells expressing E1A/Ras
Procedure: S47 and WT cells expressing E1A/Ras were analyzed.
A tumorigenic (transformed) version of WT and S47 cells may be created as follows. WT and S47 cells were transfected with two oncogenes (E1A and Ras).

wild type cells = assay: Resazurin cytotoxicity screening, wild type cells; conditions: 72 hours, resazurin fluorescence, normalized to doxorubicin and DMSO, read-out: WT EC50
Procedure: (§1) The screening methods were performed as follows. S47 and wild type cells were plated at a density of 750 cells/well in a total volume of 50 μL in 384 well Greiner microplates. The cells were allowed to attach overnight at 37° C. and then dosed with 50 nL of compound serially diluted in DMSO. Following compound addition, the assay plates were incubated at 37° C. for 72 hours, followed by the addition of 5 μL of […] Resazurin. The plates were incubated at 37° C. for 8-10 hours and then fluorescence was measured using a Perkin Elmer Envision plate reader (excitation at 530-560 nm, emission at 590 nm). Raw fluorescent counts were uploaded into Spotfire and normalized to doxorubicin (positive control) and DMSO (negative control) treated wells (n=12/plate). EC50 values were calculated by applying a logistic regression curve fit and expressed as μM compound that was effective in killing 50% of the cell population at 72 hours.

S47 cells = assay: Resazurin cytotoxicity screening, S47 cells; conditions: for EC50: S47 cells, 72 hours, resazurin fluorescence, normalized to doxorubicin and DMSO; for Fold-resistant, S47 / Fold-sensitive, S47: S47 versus WT EC50
Procedure: as §1

Row | Structure (SMILES) | Sensitivity of S47 tumor cells compared to WT cells (S47 tumor cells) | EC50 (wild type cells) [nM] | EC50 (S47 cells) [nM] | Fold-resistant, S47 (S47 cells) | Fold-sensitive, S47 (S47 cells)
1 | CC[C@@]1(O)C(=O)OCc2c1cc1n(c2=O)Cc2cc3ccccc3nc2-1 [camptothecin] | less sensitive | – | – | – | –
2 | Cc1cn(-c2cc(NC(=O)c3ccc(C)c(Nc4nccc(-c5cccnc5)n4)c3)cc(C(F)(F)F)c2)cn1 [AMN107] | – | 353 | > 10000 | 28 | –
3 | N.N.[Cl][Pt][Cl] [Cisplatin, (SP-4-2)-diamminedichloroplatinum(II)] | more sensitive | 348 | 790 | 2.3 | –
4 | CS(=O)(=O)N1CCN(Cc2cc3nc(-c4cccc5[nH]ncc45)nc(N4CCOCC4)c3s2)CC1 [GDC0941, 2-(1H-indazol-4-yl)-6-((4-(methylsulfonyl)piperazin-1-yl)methyl)-4-morpholinothieno[3,2-d]pyrimidine] | – | 28 | 12 | – | 2.33
5 | CC(C)n1nc(-c2ccc3oc(N)nc3c2)c2c(N)ncnc21 [INK128, 5-(4-amino-1-isopropyl-1H-pyrazolo[3 ,4-d]pyrimidin-3-yl)benzo[d]oxazol-2-amine] | – | 14.5 | 9.5 | – | 1.5
6 | Cc1[nH]c2ccccc2c1CCNCc1ccc(/C=C/C(=O)NO)cc1 [LBH589] | – | 3.2 | 6.6 | 2 | –
7 | COc1cccc2c1C(=O)c1c(O)c3c(c(O)c1C2=O)C[C@@](O)(C(=O)CO)C[C@@H]3O[C@H]1C[C@H](N)[C@H](O)[C@H](C)O1 [Doxorubicin] | – | 146 | 292 | 2 | –
8 | COc1cccc2cc(-c3nc([C@H]4CC[C@H](C(=O)O)CC4)n4ncnc(N)c34)[nH]c12 [OSI027, trans-4-[4-amino-5-(7-methoxy-1H-indol-2-yl)imidazo[5,1-f][1,2,4]triazin-7-yl]cyclohexanecarboxylic acid] | more sensitive | 745 | 173 | – | 4.3
9 | COc1ncc(-c2ccc3nccc(-c4ccnnc4)c3c2)cc1NS(=O)(=O)c1ccc(F)cc1F [GSK2126458, 2,4-difluoro-N-(2-methoxy-5-(4-(pyridazin-4-yl)quinolin-6-yl)pyridin-3-yl)benzenesulfonamide] | – | 1.5 | 0.46 | – | 3.26
10 | C[C@@H]1COCCN1c1cc(C2([S@](C)(=N)=O)CC2)nc(-c2cc[nH]c3nccc2-3)n1 [AZD6738] | – | 377 | > 10000 | 26 | –
